# Experiments:
# [1] = tested on: rats suffered from acute pharyngitis caused by Staphylococcus aureus; assay: Pathological morphology of pharyngeal tissues (HE staining), rat acute pharyngitis model; format: in vivo, SD rats; details: HE sections, FIG. 2A-2D
# Experimental: Material taking: rats were anesthetized and pharyngeal tissues were taken and fixed in 4% paraformaldehyde for more than 24 h. The tissues were taken from the fixing solution and in a fume hood, the tissues at the target region were trimmed with a surgical knife. The trimmed tissues and the corresponding tags were placed in a dehydration box.
# Dehydration: the dehydration was conducted by placing the dehydration box in a hanging basket, and in a dehydration machine, the dehydration was conducted with alcohols with gradient concentrations in order. 75% alcohol 1 h-85% alcohol 1 h-90% alcohol 1 h-95% alcohol 1 h-anhydrous ethanol I 30 min-anhydrous ethanol II 30 min-alcohol benzene 5-10 min-xylene I 5-10 min-xylene II 5-10 min-wax I 1 h-wax II 1 h-wax III 1 h.
# Embedding: the tissues immersed with wax were embedded in an embedding machine. The molten wax was placed in an embedding frame first, and before it was solidified, the tissues were taken from the dehydration box and placed in the embedding frame according to requirements on embedded faces and corresponding tags were attached. They were cooled on a freezing table at −20° C., and after wax solidification, the wax block was taken from the embedding frame and trimmed.
# Slicing: the trimmed wax block was sliced on a paraffin slicing machine, in a thickness of 4 μm. […]
# [2] = tested on: rats suffered from acute pharyngitis caused by Staphylococcus aureus; assay: Scoring of pharyngeal lesions, rat acute pharyngitis model; format: in vivo, SD rats; parameters: key to Pharyngeal inflammatory response grade of most animals: −: pharyngeal tissues were in light red color, and they had moist and glossy surfaces, and no secreted substances, no congestion, no swelling and other pathological phenomena; +: the mucosa in the pharynx had poor gloss, and there were a small amount of secreted substances, and slight congestions and swelling; ++: the mucosa in the pharynx was in a dark red color and poor in the gloss, and secreted substances exist therein, accompanying by moderate congestions and swelling and other phenomena; +++: the mucosa in the pharynx exhibited a dark red color, increased secretion of mucus, and evident congestion and swelling
# [3] = tested on: rats suffered from acute pharyngitis caused by Staphylococcus aureus; assay: Inflammatory factors in rat serum by ELISA, rat acute pharyngitis model; format: in vivo, SD rats; details: composition 3.5 g/kg, amoxicillin 0.36 g/kg, x ± s, n = 7
# Experimental: Rates were anesthetized. Blood was taken from abdominal aorta and injected into a procoagulant tube, standing for 45 min at room temperature, and it was centrifuged at 3500 rpm for 10 min. The supernatant was suction taken into a sterile EP tube and stored at −80° C. Before measurements, the samples were re-thawed at room temperature, and the IL-1β, IL-6 and TNF-α levels in serum were measured by enzyme-linked immunosorbent assay (ELISA). The operations were carried out according to the instruction of the kit, and each index was detected by an enzyme-labelled meter at the absorbance 450 nm.
# [4] = tested on: rats suffered from acute pharyngitis caused by Staphylococcus aureus; assay: Peripheral white blood cell count and classification, rat acute pharyngitis model; format: in vivo, SD rats; details: composition 3.5 g/kg, amoxicillin 0.36 g/kg, x ± s, n = 7
# Text: Before each group of animals were scarified, blood was taken by cutting tails and smeared on plates to conduct routine blood examinations about number of white blood cells, lymphocyte percentages and neutrophils percentages.
# [5] = tested on: rats suffered from acute pharyngitis caused by Staphylococcus aureus; assay: Appearance behavior scoring and thymus weight, rat acute pharyngitis model caused by Staphylococcus aureus; format: in vivo, SD rats; details: ig, composition 3.5 g/kg, amoxicillin 0.36 g/kg, x ± s, n = 7
# Experimental: Formulations of medicinal solutions: before the test, distilled water was used to formulate a medicinal solution with a concentration of 0.35 g/ml, which was intragastrically administrated in 1 ml/100 g body weight/time, 2 times/day, and on 7th day after pre-administrations, modelling was started and the intragastric administration was continued for 5 days.
# On 1st day, at 1 h after Staphylococcus aureus infection, the positive medicinal group was intragastrically administrated at a dose of 0.36 g/kg (equivalently equal to the clinical dose of a human), 1 time/day for 5 consecutive days.
# With scoring standard (from Standards for Preparation of Animal Models Suffered from Acute Pharyngitis, enacted by Traditional Chinese medicine Experimental Pharmacology Professional Committee of Traditional Chinese Medicine Institute, Traditional Chinese Medicine Pharmacology and Clinics 2018; 34 (1)), according to weights, mobility, fur color and gloss of rats, they were classified into 4 grades, as shown in the following Table 4.
# [6] = tested on: NF-κB; format: cell-based; details: dexamethasone 10 μM with TNF-α, 6 h; L/S; x ± SD, n = 18; model 4641.34, control 17.46
# Experimental: (§1) The 293T cells in the logarithmic growth phase were taken and inoculated into a 96-well cell culture plate at a density of 2×10^5 cell/mL, and after growth along the walls to 70-80%, a PEI (1 mg/ml) transfecting agent was used to simultaneously transfect them with ARE and NF-κB luciferase reporter plasmids pGL4.37, pGL4.32 (100 ng/well) and a renilla luciferase reported plasmid pGL4.75 (10 ng/well), and they were cultured for 24 h.
# (§2) After 24-h culture, the cells transfected with the ARE luciferase reporter plasmid pGL4.37 are added with tBHQ (10 μM) and safety concentrations of the sample solutions of the individual inventive pharmaceutical composition groups, and by setting a control group, and they were cultured 6 h; the cells transfected with NF-kB luciferase reporter plasmid pGL4.32 were respectively added with dexamethasone (10 μM) diluted by a TNF-α complete culture medium, and safety concentrations of the sample solutions of the individual inventive pharmaceutical composition groups, and by setting a control group, and a model group, and they were cultured for 6 h. The supernatant was discarded, and the cells were rinsed with PBS. After splitting, they were detected by using a Dual-Luciferase detection system. Each set of experiments were configured with 6 compound wells, with 3 repetitions. […]
# [7] = tested on: ARE; assay: ARE luciferase reporter gene activity in transfected 293T cells; format: cell-based; details: tBHQ 10 μM, 6 h; relative luciferase activity L/S; x ± SD, n = 18; control 0.76
# Experimental: as §1, §2
# [8] = of 7 rats, composition 3.5 g/kg, amoxicillin 0.36 g/kg
smiles,measurement,setting,value
CC1(C)S[C@@H]2[C@H](NC(=O)[C@H](N)c3ccc(O)cc3)C(=O)N2[C@H]1C(=O)O [Amoxicillin],"Pathological morphology of pharyngeal tissues (inflammatory cell infiltration, mucosa recovery)",[1],very similar to those in the inventive pharmaceutical composition group
same,Pharyngeal lesions: number of animals in grade +,[2]; [8],6
same,Pharyngeal lesions: number of animals in grade ++,[2]; [8],1
same,Pharyngeal lesions: number of animals in grade +++,[2]; [8],0
same,Pharyngeal lesions: number of animals in grade −,[2]; [8],0
same,Pharyngeal inflammatory response grade of most animals,[2]; summary of Table 6,+
same,IL-1β (pg/mL) in peripheral blood,[3],254.04 ± 59.15 pg/mL
same,IL-6 (pg/mL) in peripheral blood,[3],28.21 ± 8.67 pg/mL
same,TNF-α (pg/mL) in peripheral blood,[3],145.14 ± 30.98 pg/mL
same,"L (%), percentages of lymphocytes",[4],76.37 ± 7.42 %
same,"N (%), percentages of neutrophils",[4],19.5 ± 6.77 %
same,"WBC (×10^9/L), white cells",[4],8.17 ± 30^ ×10^9/L
same,Thymus gland,[5],0.26 ± 0.11 g
same,Fur gloss (appearance behavior score),[5]; index grade 0-3 (Table 4),1.14 ± 0.38
same,Mobility (appearance behavior score),[5]; index grade 0-3 (Table 4),1.43 ± 0.53
"C[C@@H]1C[C@H]2[C@@H]3CCC4=CC(=O)C=C[C@]4(C)[C@@]3(F)[C@@H](O)C[C@]2(C)[C@@]1(O)C(=O)CO [Dex, Dexamethasone]",NF-κB luciferase activity of 293T cells,[6],968.61
"CC(C)(C)c1cc(O)ccc1O [tBHQ, Tertiary butylhydroquinone]",ARE luciferase activity of 293T cells,[7],3.55

# From patent US20240261359A1, “PHARMACEUTICAL COMPOSITION FOR USE PREVENTING AND CURING RESPIRATORY DISEASES IN WINTER” (Tianjin University of Traditional Chinese Medicine, priority 2020, published 2024)
